# “And” between values parts separate entries of the source, which are not always exact repeats. Equal values may be shown once.
# Key:
# K562 = test: Mammalian cell proliferation, K562; type: cell-based
# [1] = test system: erg26Δ haploid yeast expressing mutant ERG26 alleles; test: Growth dose response of erg26Δ haploid yeast expressing mutant ERG26 alleles; type: cell-based, S. cerevisiae; conditions: seven mutant ERG26 alleles, rich liquid media
# Text: To confirm that the observed ERG26 mutations are dominant and sufficient to confer FR171456 resistance, but retain the essential function of Erg26p, we assessed the growth of erg26Δ haploid yeast expressing wild-type ERG26 or one of seven mutant alleles inserted at another locus in rich liquid media. […] It was not possible to generate a haploid strain carrying a single copy of ERG26 encoding the Gly90Ser mutation after multiple attempts. Thus seven of the eight mutations within the coding region of ERG26 are both dominant for FR171456 resistance and retain sufficient enzymatic function to support life. This additional genetic data set confirms that Erg26p is the target of FR171456.
# For EMS mutagenesis experiments, 1 × 10^8 cells were plated on one standard YPD agar plate containing 50 μM FR171456 in 2% DMSO v/v following a standard EMS mutagenesis protocol. After 2 days incubation at 30 °C 48 representative colonies were picked and retested in an overnight liquid assay for growth in YPD with or without 50 μM FR171456 in 2% DMSO v/v. Genomic DNA was prepared from 42 resistant clones (+ one wild type) and for each the entire ERG26 gene was sequenced following PCR amplification with high-fidelity polymerase. […]
# [2] = test system: Aspergillus fumigatus NF4905; test: Antifungal MIC; type: cell-based
# Candida krusei NF2902 = test: Antifungal MIC; type: cell-based; conditions: Pichia kudriavzevii
# [3] = test system: Candida tropicalis NF2903; test: Antifungal MIC; type: cell-based
# serum cholesterol = conditions: cited from earlier work
# HepG2 = test: Mammalian cell proliferation, HepG2; type: cell-based
# Erg26p = biological target: T1, Erg26p (Saccharomyces cerevisiae, UniProt P53199); test: biochemical
# T1 sequence (P53199 1-349): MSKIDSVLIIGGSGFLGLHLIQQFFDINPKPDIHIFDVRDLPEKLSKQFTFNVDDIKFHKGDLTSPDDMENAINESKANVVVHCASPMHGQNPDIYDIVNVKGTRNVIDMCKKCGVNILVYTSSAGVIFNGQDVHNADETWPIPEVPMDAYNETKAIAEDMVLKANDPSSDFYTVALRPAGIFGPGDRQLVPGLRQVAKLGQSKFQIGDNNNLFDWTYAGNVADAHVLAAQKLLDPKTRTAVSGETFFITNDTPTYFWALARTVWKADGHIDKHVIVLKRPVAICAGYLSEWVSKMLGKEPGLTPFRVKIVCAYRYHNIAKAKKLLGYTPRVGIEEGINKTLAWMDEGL
# Method: To test this hypothesis an in vitro microsomal Erg26p activity assay[30] was used. Erg26p activity was directly assessed in the presence of increasing concentrations of FR171456 (10 nM–0.1 mM) in the presence of 150 μM carboxysterol substrate (Fig. 1c) and the cofactor NAD^+ (0.5 mM) followed by GC-MS detection of the product 4α-methyl-cholest-8,24-dien-3-one.
# Wild-type yeast (FL200) microsomes were prepared as follows. Yeast cells were disrupted by glass bead homogenization (0.45-mm diameter) in 100 mM phosphate buffer (pH 7.5) containing 1.5 mM reduced glutathione and 30 mM nicotinamide for 8 min at 0 °C[44]. The cell extract was obtained by centrifugation at 10,000 × g for 20 min. Microsomes were then isolated by centrifuging the cell extract supernatant at 100,000 × g for 90 min. The resulting microsomal pellet was resuspended in 100 mM phosphate buffer (pH 7.5) containing 3 mM reduced glutathione and 20% glycerol (v/v) using an Elvehjem–Potter homogenizer. Yeast microsomes (1.2 mg of protein) were incubated in the presence of 4α-carboxy-4β-methyl-cholest-8,24-dien-3β-ol (50–300 mM) and NAD^+ (0.5 mM) for 35–45 min at 30 °C. After addition of coprostanone (2–6 μg) as internal standard, the reactions were extracted as described previously[12]. The extract was analysed by TLC on silica gel and eluted twice with CH2Cl2. The fraction migrating between a standard of 4-desmethyl-sterone (RF= 0.50) and 4,4-dimethyl-sterone (RF=0.70) was eluted and analysed using a GC-MS spectrometer (Agilent 5973 N).
# In the case of inhibition assays, microsomes were incubated for 35–45 min at 30 °C in the presence of 4α-carboxy-4β-methyl-cholest-8,24-dien-3β-ol (50–300 mM) and a range of inhibitor concentration (0.01–100 μM) from which a dose–response curve was obtained allowing the corresponding I50 values to be determined.
# The GC-MS spectrometer (Agilent 5973 N) was equipped with an ‘on column' injector and a capillary column (30 × 0.25 mm) coated with DB5 (H2 flow rate of 2 ml min^−1). The temperature program included a 30 °C min^−1 increase from 60 °C to 240 °C, and followed by a 2 °C/min increase from 240 °C to 280 °C. The areas of the GC peaks of coprostanone (tR=1.000) and of the produced 4α-methyl-cholest-8,24-dien-3-one (tR=1.139), corrected from endogenous component of the same tR (1.139) determined in the blank (boiled microsomes), allowed the rate of transformation of 4α-carboxy-4β-methyl-cholest-8,24-dien-3β-ol to be measured. Under these conditions, the estimated limit of detection of the 3βHSD/D activity was 0.1 nmol h^−1 mg^−1.
# [4] = test system: sterol pathway intermediates in Huh-7 cells; conditions: 80 nM vs 0 nM FR171456, 48 h
# Method: In an attempt to understand which sterol (and other) metabolites are altered by FR171456 a metabolite-profiling experiment was conducted using cells from the original replicon assay exposed to vehicle or four concentrations of FR171456 (Fig. 1c,f, Methods, supplementary Fig. 2). Peaks in the mass spectra with statistically significant differences in intensities between the high (80 nM) and low (0 nM) concentration samples were selected by P values <0.01 (Student's t-test, Bonferroni corrected) and ranked by fold changes. Metabolite identities were assigned to those peaks whose m/z ratio corresponds to the mass of known metabolites (Supplementary Table 1).
# Samples of cell pellets containing 8 × 10^6 cells each were lysed and extracted with 300 μl cold methanol (−80 °C) in ultrasonic bath for 10 min and subsequently agitated for 5 min before centrifugation at 10,000 g for 5 min at 4 °C. The supernatants were removed and the remaining pellets were again extracted twice. The supernatants from three extractions were then combined and dried using a SpeedVac (Savant, Fisher Scientific Inc., USA) for 2 h without heating. The residues were resuspended in 200 μl of 80% MeOH and centrifuged to remove any non-dissolvable particles. Finally, 10 μl of the supernatant was then diluted by factor 100 in MeOH/H2O (1:1) for mass spectrometric analysis.
# The diluted sample (100 μl) was infused directly into a LTQ-Orbitrap mass spectrometer (Thermo Fisher Scientific, USA) using a HTC PAL autosampler (CTC Analytics, Zwingen, Switzerland) at a flow rate of 18 μl min^–1. A make-up flow, consisting of 70% ethanol and 0.1% formic acid, was delivered through a T-piece at 15 μl min^–1. Electrospray ionization and selected monitoring scan were applied. The total mass range m/z 100–2,000 was segmented into […] scan events with a width of mass window m/z 50 each. Mass resolution at m/z 400 was 100,000.
# Each sample was measured in triplicate in positive ionization mode in random order. For quality and instrument stability control, the samples were interspersed with test mix infusion and pooled samples. Blank spectra were also recorded and the observed mass peaks of solvent and impurities were then suppressed in subsequent analysis.
# The measured raw spectra were imported with in-house software written in the Igor package (Wavemetrics Inc.) for alignment, peak detection, and integral normalization. The table of exact peak masses and intensities (Supplementary Data, file Supplementary Dataset 1) were exported into the statistical software R, version 2.15.1, for subsequent univariate statistics and pathway analysis. For peak identification, the KEGG database was searched for matches of the observed peaks with endogenous metabolite entries. Metabolite masses with adducts of H^+, Na^+, or K^+ were considered a hit and possible identity of a peak if the difference between its exact monoisotopic mass and the observed mass plus adducts was below 3 p.p.m.
smiles,measurement,setting,value
"C=C(CCC(C)C1CCC2C1(C)CC(O)C13CC14C(=O)CC(O)C(C)(C(=O)O)C4C(=O)CC23O)C(C)C [FR171456, (1R,2aR,3R,5aR,5bS,7aR,8S,9S,11aS,12aR)-1,5b,9-trihydroxy-2a,8-dimethyl-3-((R)-6-methyl-5-methyleneheptan-2-yl)-7,11-dioxohexadecahydrocyclopenta[a]cyclopropa[e]-phenanthrene-8-carboxylic acid]",concentration affecting proliferation,K562,36 µM
same,change of growth IC50 compared with the isogenic control,[1],increase in the IC50
same,MIC,[2],16 µg/mL and 36 µM
same,MIC,Candida krusei NF2902,64 µg/mL and 144 µM
same,MIC,[3],72 µM and 32 µg/mL
same,dose giving significant reduction in serum cholesterol,serum cholesterol; rabbits treated for 3 weeks ref 14,1 µg/kg
same,adverse effects,"serum cholesterol; rabbits, 3 weeks, doses up to 1 mg kg^−1 ref 14",no adverse effects reported
same,side effects,"serum cholesterol; rabbits, efficacious doses for 14 days ref 14",no reported side effects
same,concentration affecting proliferation,HepG2,80 µM
same,IC50,Erg26p,2200 ± 500 nM
same,"Fold change, m/z 401.3418 (calcidiol, 7α-hydroxycholest-4-en-3-one)",[4],0.680
same,"Fold change, m/z 463.3183 (pfaffic acid)",[4],infinite
same,"Fold change, m/z 465.3339 (4α-methylzymosterol-4-carboxylate)",[4],822.2
same,"Fold change, m/z 467.3496 (3β-hydroxy-4β-methyl-5α-cholest-7-ene-4α-carboxylate)",[4],3675.4
same,"Fold change, m/z 489.3314 (not identified)",[4],infinite
same,"Fold change, m/z 1198.8982 (not identified)",[4],9665.6

# Source: paper PMC4633953, “FR171456 is a specific inhibitor of mammalian NSDHL and yeast Erg26p” (Nature Communications, 2015)
